According to patent publication US6352713B1, “Nutritional composition” (Drugtech Corporation, priority 1999, dated 2002):

Experiments:
[1] = pH of the solution/suspension of a composition in deionized water; assay type: physicochemical; conditions: ascorbic acid/calcium carbonate mixtures; amount equivalent to 50 mg ascorbic acid in 25 ml deionized water, stirred ten minutes
Procedure: As discussed herein, the pH of the present composition is measured by any suitable means well known to persons of ordinary skill in the art. […] Another non-limiting exemplary technique for measuring the pH of a dosage form is to use a glass mortar and pestle to grind one tablet until a finely divided uniform powder is obtained. The finely divided uniform powder is then added to an appropriate vessel and the pH is then determined as in manner of the preceding example.
To the beaker was added 25 ml of deionized water. The contents of the beaker were then vigorously stirred for ten minutes. The pH of the resultant solution/suspension was then measured.
To the beaker was added 25 ml of deionized water. The contents were then vigorously stirred for ten minutes. The pH of the resultant solution/suspension was then measured.
In comparison, a conventional chewable prenatal supplement containing 1000 IU of vitamin A, 400 IU of vitamin D3, 11 IU of vitamin E, 120 mg of vitamin C, 1 mg of folic acid, 2 mg of vitamin B1, 3 mg of riboflavin, 20 mg of niacin, 10 mg of vitamin B6, 12 mcg of vitamin B12 and 29 mg of iron was obtained. […] To the beaker was added 25 ml of deionized water. The contents were then vigorously stirred for ten minutes or until dissolved. The pH of the resultant solution/suspension was then measured.

[2] = cited from earlier work

Structure (SMILES) | pH Value [1] | share of dietary folic acid available to the body (bioavailability) [2]
O=C1O[C@H]([C@@H](O)CO)C(O)=C1O [Ascorbic Acid] | 3.32 | –
Nc1nc2ncc(CNc3ccc(C(=O)N[C@@H](CCC(=O)O)C(=O)O)cc3)nc2c(=O)[nH]1 [Folic acid, pteroylglutamic acid] | – | about half
